# Laboratory results reported in paper PMC5118696, “Identification of inhibitors that dually target the new permeability pathway and dihydroorotate dehydrogenase in the blood stage of Plasmodium falciparum” (Scientific Reports, 2016).
# Like-named read-outs stand apart in the source and are kept apart here.
# Key:
# [1] = tested on: Hyp1-NLuc Plasmodium falciparum-infected erythrocytes (new permeability pathway, NPP); test: microbe, parasite or virus in culture; conditions: Erythrocyte, 0.33 h, read-out: % of control remaining
# [2] = tested on: Hyp1-NLuc Plasmodium falciparum-infected erythrocytes (new permeability pathway, NPP); test: microbe, parasite or virus in culture; conditions: Erythrocyte, 0.33 h, read-out: Mean RLU at 28 min (As % of DMSO control)
SMILES,activity at 2 µM [1] [%],activity at 2 µM [2] [%]
Cc1cc(N2CCCC2)nc(Nc2ccc(NC(=O)CCc3ccccc3)cc2)n1 [MMV396669],76.3,90.3
CC(=O)c1ccc(NC(=O)CSc2nc(-c3ccccc3Cl)ns2)cc1 [MMV666124],69.6,96.8
COc1cc(OC)cc(N2C(=O)N(Cc3ccc(C(C)(C)C)cc3)c3ccccc3S2(=O)=O)c1 [MMV008173],115,103
COc1ccc2c(c1)C1(Nc3ccccc3-c3nc4ccccc4n31)C(=O)N2 (centres unmarked) [MMV396749],104,103
CN(C)c1ccc(-c2nc3cc(N)ccc3[nH]2)cc1 [MMV666102],90,98.7
COc1ccc(-c2nonc2NC(=O)c2cccc(Cl)c2)cc1OC [MMV020660],109,108
Cc1ccccc1OCCSc1nc2ccc(NC(=O)c3ccccc3)cc2s1 [MMV007577],98.1,97.3
Oc1c2c(nc3cc(-c4ccccc4)nn13)CCCC2 [MMV008270],56.9,100
COc1ccccc1C(=O)ON=C(N)Cc1cccc2ccccc12 [MMV666686],96.4,102
CCOc1ccc(-n2cc(-c3ccccc3)c3c(SCc4cc(C)ccc4C)ncnc32)cc1 [MMV085471],118,104
O=C(CCc1ccco1)NC1CCN(CC2(c3ccc(Cl)cc3)CCC2)CC1 [MMV666108],114,100
CCc1ccc(Nc2cc(C)c3ccc(O)cc3n2)cc1 [MMV000570],107,106
Cc1cccc(N2C(=O)C3C(C2=O)C2(c4ccccc4)C(=O)C3(c3ccccc3)C(c3ccc4c(c3)OCO4)=C2c2ccc3c(c2)OCO3)c1 (centres unmarked) [MMV007228],107,99.5
COc1cccc(NC(=O)Cn2c(C)c(C#N)c3ccccc32)c1 [MMV665826],109,101
Cc1ccc(-c2cc(C(=O)Nc3ccc(S(=O)(=O)N4CCCCC4)cc3)[nH]n2)c(O)c1 [MMV665906],105,100
Cc1ccc(Cn2c(N3CCC(C(=O)NCc4cccs4)CC3)nc3ccccc32)cc1 [MMV007564],104,96.6
Cc1cc(=O)oc2c1ccc1oc(C(=O)c3ccccc3)c(C)c12 [MMV006753],108,103
Cc1cc(N2CCN(C3CCCC3)CC2)n2c(nc3ccccc32)c1C#N [MMV006706],117,118
COc1ccc(C2NCCc3c2[nH]c2ccccc32)cc1CN1CCN(c2ccc(F)cc2)CC1 (centres unmarked) [MMV019690],113,106
Cc1ccc(F)cc1NC(=O)c1cc(Cl)ccc1Nc1ccccc1 [MMV007275],116,106
COc1ccc(N2CCN(C(CNC(=O)CC(C)(C)C)c3ccc4c(c3)OCO4)CC2)cc1 (centres unmarked) [MMV665908],97.1,92.5
CCOc1cc2c(cc1OCC)C(c1cc(Cl)ccc1O)NCC2 (centres unmarked) [MMV000478],95.3,104
COc1cc2cc(C(=O)Nc3ccccc3)c(N)nc2cc1OC [MMV006767],119,119
C[n+]1c2ccccc2nc2ccc(NCCO)cc21 [MMV396693],100,101

SMILES,activity at 2 µM [1] [%],activity at 2 µM [2] [%]
COc1cc(CNCCc2ccc(Cl)cc2)cc(OC)c1O [MMV128432],97.8,97.7
CCN(CC)CCNc1ccnc2cc3ccccc3cc12 [MMV006303],107,109
Cc1cc(C=C2SC(=Nc3ccccc3)N(C3CCCC3)C2=O)c(C)n1-c1ccc(Cl)cc1 [MMV666688],98.7,99.9
CCOC(=O)c1cnc2ccc(CC)cc2c1O [MMV007116],85.3,103
FC(F)(F)c1cccc(CNC2CCN(CCc3ccccc3)CC2)c1 [MMV665979],112,104
COc1ccc(-c2nonc2NC(=O)c2cccc(C)c2)cc1OC [MMV665890],113,104
O=C(c1ccccc1F)N(Cc1ccc(Cl)cc1)c1ccccn1 [MMV665899],106,102
COc1ccc(C(=O)Nc2ccc(Cl)cc2C(=O)Nc2ccncc2)cc1 [MMV665799],111,100
O=C(O)C1Cc2c([nH]c3ccccc23)C(c2ccc(Cl)cc2Cl)N1 (centres unmarked) [MMV008138],102,102
Cc1ccc2nc(C)cc(Nc3cccc(C(F)(F)F)c3)c2c1 [MMV000326],118,110
COc1ccc2nc(N)nc(C)c2c1 [MMV665897],93.5,103
CCOc1ccccc1NC(=O)CN1CCN(C(=O)c2ccco2)CC1 [MMV007791],108,106
CCOc1ccc(C=Cc2nc(=O)c3ccccc3o2)cc1 [MMV665940],31.3,61.5
OC(CNC1CCCCC1)Cn1c2ccccc2c2ccccc21 (centres unmarked) [MMV009063],92.9,97
CCCc1cc(O)c2c3c(c(=O)oc2c1)CN(C)CC3 [MMV665841],103,107
CCOc1ccc2c(c1)CN(Cc1ccc(Cl)cc1)CO2 [MMV000443],94.2,99.2
CN(C)CCCNc1c2ccccc2nc2ccccc12 [MMV000448],102,102
CC(=O)Nc1nnc(SCc2c(C)cc(C(C)(C)C)cc2C)s1 [MMV020700],115,114
COc1ccc2nc(C)cc(Nc3ccccc3O)c2c1 [MMV274073],110,110
COc1ccc(-c2cc3c(SCC(=O)Nc4cc(C(F)(F)F)ccc4Cl)nccn3n2)cc1 [MMV396679],105,106
CCCCNCC(O)(c1ccc(Cl)cc1)c1ccc(Cl)cc1 [MMV665929],122,107
COc1ccc(C2C(C(=O)Nc3cccc(OC)c3)c3ccccc3C(=O)N2C2CCCCC2)cc1 (centres unmarked) [MMV008455],115,107
Cc1cc(C)cc(Nc2cc(C)nc3nc(C(F)(F)F)nn23)c1 [MMV011259],98.6,101
COc1ccc(NC(=O)C2c3ccccc3C(=O)N(CC(C)C)C2c2cccs2)cc1Cl (centres unmarked) [MMV000642],94,94.6

SMILES,activity at 2 µM [1] [%],activity at 2 µM [2] [%]
O=C(CSc1nccn2nc(-c3ccccc3)cc12)Nc1cc(C(F)(F)F)ccc1Cl [MMV396678],107,107
COc1ccc(-c2nc3cc(Cc4ccc5[nH]c(-c6ccc(OC)cc6)nc5c4)ccc3[nH]2)cc1 [MMV007384],45.6,82.1
COCCN(C(=O)Cc1cccs1)C(C(=O)NCc1ccc(OC)cc1)c1ccc(C(C)C)cc1 (centres unmarked) [MMV666105],113,100
Oc1ccccc1CNCC12CC3CC(CC(C3)C1)C2 [MMV020788],109,108
c1ccc(Cn2c(N=Nc3c(Nc4ccccc4)ccc4ccccc34)nc3ccccc32)cc1 [MMV666023],101,102
FC(F)(F)c1ccc(Nc2nnnc3ccccc23)cc1 [MMV665935],112,99.5
COc1ccc(CCNC(=O)c2cc(S(=O)(=O)N3CC(C)CC(C)C3)ccc2Sc2ccc(F)cc2)cc1OC (centres unmarked) [MMV007557],106,102
CCCCC(O)(c1ccc(Cl)cc1)C(CN1CCOCC1)c1ccc(Cl)cc1 (centres unmarked) [MMV000619],114,108
O=C(Nc1ccc(Br)cc1)Nc1cccc(Cl)c1 [MMV001318],107,105
CC1=C(CC(=O)c2cccc([N+](=O)[O-])c2)C(=O)c2ccccc2C1=O [MMV666125],101,96.1
OC1CCCCC1C1(NC(=S)Nc2ccccc2)CCCCC1 (centres unmarked) [MMV665980],101,101
Cc1sc(NC(=O)c2ccco2)c(C(c2cccnc2)N2CCC(Cc3ccccc3)CC2)c1C (centres unmarked) [MMV396663],92.5,97
CCCCOc1ccc(C(=O)Nc2cc(C)on2)cc1 [MMV007906],115,117
Nc1ccn(C2O[C@H](CO)[C@@H](O)[C@H]2O)c(=O)n1 (some centres unmarked) [MMV638723],88.6,86.2
CCOc1cc2c(cc1OCC)C(c1cc(C)c(O)c(C)c1)NCC2 (centres unmarked) [MMV000483],102,103
C=CCc1c(C)nc2ccccc2c1O [MMV006913],115,116
Oc1c(CN2CCN(c3ccccc3F)CC2)cc(Br)c2cccnc12 [MMV000760],114,112
c1ccc2cc3c(Nc4ccc(N5CCOCC5)cc4)ccnc3cc2c1 [MMV006861],102,109
CCN(CC)CCNc1ncnc2c1[nH]c1ccc(Cl)cc12 [MMV396703],99.7,110
CCOc1ccc2nc(C)cc(Nc3ccc(N(C)C)cc3)c2c1 [MMV007020],102,102
COc1ccc(CCn2c(=N)c(C(=O)NCc3cccnc3)cc3c(=O)n4cccc(C)c4nc32)cc1 [MMV667488],95.6,105
CCCCCCn1c(=N)n(CC(O)COc2cccc(C)c2)c2ccccc21 (centres unmarked) [MMV000445],93.8,87.2
